In publication PMC7395068, “The evolution of strategies to minimise the risk of human drug-induced liver injury (DILI) in drug discovery and development” (Archives of Toxicology, 2020):
Like-named read-outs stand apart in the source and are kept apart here.

Legend:
[1] = cited from earlier work; for DILI severity category (Chen et al. [2016]): LTKB DILIrank category; for DILI severity category (Chen et al. [2016]) / DILI severity category (Chen 2016): ref Chen et al. 2016; for DILI severity category (Chen 2016): human DILI classification, LTKB DILIrank
[2] = system: primary human hepatocytes, NIH3T3 fibroblasts, BSEP, CYP3A4; details: cited from earlier work
hLiMTs [3] = details: cited from earlier work; for hLiMTs ATP <100uM: In vitro Assay, ref Proctor 2017; for hLiMTs/100uM, Proctor (2017): ATP, IC50 threshold 100 µM, ref Proctor et al. 2017
hLiMTs [4] = test: Combined HCI (HCS) and cellular ATP 3D assay in hLiMTs; details: for AC50 / minimal effective concentration: Homo sapiens; for DILI prediction hLiMTs (HCS-MEC): Microtissue model structural based (HCI), combined HCS and ATP, MEC < 25 × Cmax.tot cut-off; for hLiMTs <25x Avg Cmax ATP / hLiMTs <100x Avg Cmaxu ATP: ATP endpoint; for hLiMTs <25x Avg Cmax ATP / hLiMTs <25x Avg Cmax HCS / hLiMTs <25x Avg Cmax All: cut-off <25x Avg Cmax; for hLiMTs <100x Avg Cmaxu ATP / hLiMTs <100x Avg Cmaxu HCS / hLiMTs <100x Avg Cmaxu All: cut-off <100x Avg Cmaxu; for hLiMTs <25x Avg Cmax HCS / hLiMTs <100x Avg Cmaxu HCS: HCS endpoints; for hLiMTs <25x Avg Cmax All: all endpoints (ATP and HCS); for hLiMTs Cmax max All / hLiMTs Cmax min All / hLiMTs <10 uM All / hLiMTs <100x Avg Cmaxu All: all endpoints; for hLiMTs Cmax max All: Cmax max used; for hLiMTs Cmax min All: Cmax min used; for hLiMTs <10 uM All: cut-off <10 uM
PHH = details: cited from earlier work; for PHH/100uM, Proctor (2017): 2D PHH, ATP, IC50 threshold 100 µM, ref Proctor et al. 2017; for PHH ATP <100uM: In vitro Assay, ref Proctor 2017
[5] = plasma free fraction; cited from earlier work
[6] = ref Chen 2011; cited from earlier work
[7] = cited from earlier work; for Assigned DILI category: Chen et al. 2016 or literature alignment, ref Chen et al. 2016
[8] = system: HepG2 C3A spheroid, BSEP, Glu/Gal in HepG2 cells, bioactivation; details: cited from earlier work; for Bayesian Machine Learning DILI prediction, Williams (2019): Bayesian modeling, ref Williams et al. 2019; for Bayesian Machine Learning: In vitro Assay, ref Williams 2019
[9] = system: THLE or HepG2 cells, isolated mitochondria, BSEP; details: cited from earlier work; for Partition Hybrid HRM Score / Ro2 Hybrid HRM Score: In vitro Assay, ref Aleo 2019; for Partition Hybrid HRM Score ≥4, Aleo (2019) / Partition Hybrid HRM Score ≥8, Aleo (2019) / Rule of Two hybrid HRM Score ≥3, Aleo (2019) / Rule of Two hybrid HRM Score ≥8, Aleo (2019): Modeled in vitro assays (cytotoxicity, mitochondrial dysfunction, BSEP), ref Aleo et al. 2019
HepaRG spheroids = test: Combined HCI (HCS) and cellular ATP 3D assay in HepaRG spheroids; details: for HepaRG <25x Avg Cmax ATP / HepaRG <100x Avg Cmaxu ATP: ATP endpoint; for HepaRG <25x Avg Cmax ATP / HepaRG <25x Avg Cmax HCS / HepaRG <25x Avg Cmax All: cut-off <25x Avg Cmax; for HepaRG <100x Avg Cmaxu ATP / HepaRG <100x Avg Cmaxu HCS / HepaRG <100x Avg Cmaxu All: cut-off <100x Avg Cmaxu; for HepaRG <25x Avg Cmax HCS / HepaRG <100x Avg Cmaxu HCS: HCS endpoints; for HepaRG <25x Avg Cmax All: all endpoints (ATP and HCS); for HepaRG Cmax max All / HepaRG Cmax min All / HepaRG <10 uM All / HepaRG <100x Avg Cmaxu All: all endpoints; for HepaRG Cmax max All: Cmax max used; for HepaRG Cmax min All: Cmax min used; for HepaRG <10 uM All: cut-off <10 uM; for AC50 / minimal effective concentration: Homo sapiens; for HepaRG <25x Avg Cmax ATP / HepaRG <100x Avg Cmaxu ATP / HepaRG <25x Avg Cmax HCS / HepaRG <100x Avg Cmaxu HCS / HepaRG <25x Avg Cmax All / HepaRG Cmax max All / HepaRG Cmax min All / HepaRG <10 uM All / HepaRG <100x Avg Cmaxu All / AC50 / minimal effective concentration: HepaRG; for DILI prediction HepaRG spheroids (HCS-MEC): Microtissue model structural based (HCI), combined HCS and ATP, MEC < 25 × Cmax.tot cut-off
Procedure: 3D spheroid models consisting of either primary human hepatocytes with non-parenchymal cells (hLiMT’s) or HepaRG cells (HepaRG spheroids) were assessed for size (MS), oxidative stress (OS), MMP, mitochondrial mass (MM), GSH and cellular ATP content following drug exposure. Fluorescent images are acquired using the confocal mode of an ArrayScan™ XTI HCI reader (ThermoScientific) following which cellular ATP was measured using 3D CellTiter-Glo (Promega).

PHH spheroids = details: cited from earlier work
[10] = system: HepG2 cells, primary human hepatocytes; details: In vitro Assay; ref Garside 2014; cited from earlier work
[11] = system: isolated mouse liver mitochondria; details: In vitro Assay; ref Porceddu 2012; cited from earlier work
human hepatocytes = details: cited from earlier work
[12] = human DILI severity, ref Chen et al.
[13] = In vitro Assay, ref Schadt 2015

## CS(=O)(=O)CCNCc1ccc(-c2ccc3ncnc(Nc4ccc(OCc5cccc(F)c5)c(Cl)c4)c3c2)o1 [lapatinib]
[1]
  DILI severity category (Chen et al. [2016]): Most
  DILI severity category (Chen 2016): Most
[1]; [12]
  DILI severity category: Most
[1]; ref Chen 2016
  DILI +VE (5-8), DILI -VE (-4): +VE
  DILI severity category: vMost-DILI-Concern
[2]; BSEP & Metabolism based, ref Schadt et al. 2015
  DILI in vitro assay prediction, Schadt (2015): +VE
[2]; [13]
  Cellular toxicity (3T3 cells): +VE
  GSH adduct HML: +VE
  Hepatocyte cellular toxicity: -VE
  MitoTox 3T3: -VE
  TDI CYP3A4: +VE
  hBSEP inhibition: -VE
hLiMTs [3]
  hLiMTs ATP <100uM: +VE (IC50 threshold of 100 µM)
  hLiMTs/100uM, Proctor (2017): +VE (IC50 threshold of 100 µM)
hLiMTs [4]; read-out: ATP endpoint AC50
  AC50: 30.1 µM
hLiMTs [4]; read-out: ATP endpoint MEC
  minimal effective concentration: 12.6 µM
hLiMTs [4]; read-out: HCS endpoint AC50
  AC50: 30.7 µM
hLiMTs [4]; read-out: HCS endpoint MEC
  minimal effective concentration: 1.79 µM
hLiMTs [4]
  DILI prediction hLiMTs (HCS-MEC): +VE (MEC < 25 × Cmax.tot cut-off)
  hLiMTs <25x Avg Cmax ATP: +ve
  hLiMTs <100x Avg Cmaxu ATP: -ve
  hLiMTs <25x Avg Cmax HCS: +ve
  hLiMTs <100x Avg Cmaxu HCS: +ve (<100x Avg Cmaxu)
  hLiMTs <25x Avg Cmax All: +ve
  hLiMTs Cmax max All: +ve
  hLiMTs Cmax min All: +ve
  hLiMTs <10 uM All: +ve (<10 uM)
  hLiMTs <100x Avg Cmaxu All: +ve (<100x Avg Cmaxu)
PHH
  PHH/100uM, Proctor (2017): +VE (IC50 threshold of 100 µM)
  PHH ATP <100uM: +VE (IC50 threshold of 100 µM)
[5]
  fu: 0.010
[6]
  DILI Score (FDA) (1-8): 8
[7]
  Assigned DILI category: 3
[7]; ref Aleo 2019
  In vivo DILI: +VE
[7]; ref Proctor 2017
  In vivo DILI: +VE
[7]; ref Schadt 2015
  In vivo DILI: +VE
[7]; ref Williams 2019
  In vivo DILI: +VE
[8]
  Bayesian Machine Learning DILI prediction, Williams (2019): +VE
  Bayesian Machine Learning: +VE
[9]
  Partition Hybrid HRM Score: +VE
  Ro2 Hybrid HRM Score: +VE
  Partition Hybrid HRM Score ≥4, Aleo (2019): +VE (Partition Hybrid HRM Score ≥4)
  Partition Hybrid HRM Score ≥8, Aleo (2019): +VE (Partition Hybrid HRM Score ≥8)
  Rule of Two hybrid HRM Score ≥3, Aleo (2019): +VE (Rule of Two hybrid HRM Score ≥3)
  Rule of Two hybrid HRM Score ≥8, Aleo (2019): +VE (Rule of Two hybrid HRM Score ≥8)
HepaRG spheroids
  HepaRG <25x Avg Cmax ATP: +ve
  HepaRG <100x Avg Cmaxu ATP: +ve (<100x Avg Cmaxu)
  HepaRG <25x Avg Cmax HCS: +ve
  HepaRG <100x Avg Cmaxu HCS: +ve (<100x Avg Cmaxu)
  HepaRG <25x Avg Cmax All: +ve
  HepaRG Cmax max All: +ve
  HepaRG Cmax min All: +ve
  HepaRG <10 uM All: +ve (<10 uM)
  HepaRG <100x Avg Cmaxu All: +ve (<100x Avg Cmaxu)
  DILI prediction HepaRG spheroids (HCS-MEC): +VE (MEC < 25 × Cmax.tot cut-off)
HepaRG spheroids; read-out: ATP endpoint AC50
  AC50: 2.11 µM
HepaRG spheroids; read-out: ATP endpoint MEC
  minimal effective concentration: 1.21 µM
HepaRG spheroids; read-out: HCS endpoint AC50
  AC50: 2.25 µM
HepaRG spheroids; read-out: HCS endpoint MEC
  minimal effective concentration: 0.768 µM

## C1CCC(C(CC2CCCCN2)C2CCCCC2)CC1 (stereo not shown) [perhexiline]
[1]
  DILI severity category (Chen et al. [2016]): Most
  DILI severity category (Chen 2016): Most
[1]; [12]
  DILI severity category: Most
[1]; ref Chen 2016
  DILI +VE (5-8), DILI -VE (-4): +VE
  DILI severity category: vMost-DILI-Concern
hLiMTs [3]
  hLiMTs ATP <100uM: +VE (IC50 threshold of 100 µM)
  hLiMTs/100uM, Proctor (2017): +VE (IC50 threshold of 100 µM)
PHH spheroids; In vitro Assay, ref Vorrink 2018
  hLiMTs ATP <20 x Cmax: +VE (IC20 < 20 × Cmax.tot cut-off)
PHH spheroids; PHH spheroids, ATP, 14 days, IC20 < 20 × Cmax.tot, ref Vorrink et al. 2018
  DILI in vitro assay prediction, Vorrink (2018): +VE (IC20 < 20 × Cmax.tot cut-off)
hLiMTs [4]; read-out: ATP endpoint AC50
  AC50: 1.69 µM
hLiMTs [4]; read-out: ATP endpoint MEC
  minimal effective concentration: 1.49 µM
hLiMTs [4]; read-out: HCS endpoint AC50
  AC50: 1.75 µM
hLiMTs [4]; read-out: HCS endpoint MEC
  minimal effective concentration: 0.354 µM
hLiMTs [4]
  DILI prediction hLiMTs (HCS-MEC): +VE (MEC < 25 × Cmax.tot cut-off)
  hLiMTs <25x Avg Cmax ATP: +ve
  hLiMTs <100x Avg Cmaxu ATP: +ve (<100x Avg Cmaxu)
  hLiMTs <25x Avg Cmax HCS: +ve
  hLiMTs <100x Avg Cmaxu HCS: +ve (<100x Avg Cmaxu)
  hLiMTs <25x Avg Cmax All: +ve
  hLiMTs Cmax max All: +ve
  hLiMTs Cmax min All: +ve
  hLiMTs <10 uM All: +ve (<10 uM)
  hLiMTs <100x Avg Cmaxu All: +ve (<100x Avg Cmaxu)
[10]
  Cluster 1-6 +VE Assay: +VE
PHH
  PHH/100uM, Proctor (2017): +VE (IC50 threshold of 100 µM)
  PHH ATP <100uM: +VE (IC50 threshold of 100 µM)
[11]
  in vitro data EC2<=1x Cmax: +VE
  in vitro data EC20<=2uM: +VE
[5]
  fu: 0.100
[7]
  Assigned DILI category: 3
[7]; […]
  In vivo DILI: +VE
[7]; ref Aleo 2019
  In vivo DILI: +VE
[7]; ref Garside 2014
  In vivo DILI: +VE
[7]; ref Porceddu 2012
  In vivo DILI: +VE
[7]; ref Proctor 2017
  In vivo DILI: +VE
[7]; ref Vorrink 2018
  In vivo DILI: +VE
[7]; ref Williams 2019
  In vivo DILI: +VE
[7]; ref Xu 2008
  In vivo DILI: +VE
[8]
  Bayesian Machine Learning DILI prediction, Williams (2019): +VE
  Bayesian Machine Learning: +VE
[9]
  Partition Hybrid HRM Score: +VE
  Ro2 Hybrid HRM Score: +VE
  Partition Hybrid HRM Score ≥4, Aleo (2019): +VE (Partition Hybrid HRM Score ≥4)
  Partition Hybrid HRM Score ≥8, Aleo (2019): +VE (Partition Hybrid HRM Score ≥8)
  Rule of Two hybrid HRM Score ≥3, Aleo (2019): +VE (Rule of Two hybrid HRM Score ≥3)
  Rule of Two hybrid HRM Score ≥8, Aleo (2019): +VE (Rule of Two hybrid HRM Score ≥8)
Human hepatocytes; In vitro Assay, ref Xu 2008
  Structural based (HCI): +VE
Human hepatocytes; Structural based (HCI), human hepatocytes, ref Xu et al. 2008
  DILI in vitro assay prediction, Xu (2008): +VE
HepaRG spheroids
  HepaRG <25x Avg Cmax ATP: +ve
  HepaRG <100x Avg Cmaxu ATP: +ve (<100x Avg Cmaxu)
  HepaRG <25x Avg Cmax HCS: +ve
  HepaRG <100x Avg Cmaxu HCS: +ve (<100x Avg Cmaxu)
  HepaRG <25x Avg Cmax All: +ve
  HepaRG Cmax max All: +ve
  HepaRG Cmax min All: +ve
  HepaRG <10 uM All: +ve (<10 uM)
  HepaRG <100x Avg Cmaxu All: +ve (<100x Avg Cmaxu)
  DILI prediction HepaRG spheroids (HCS-MEC): +VE (MEC < 25 × Cmax.tot cut-off)
HepaRG spheroids; read-out: ATP endpoint AC50
  AC50: 3.69 µM
HepaRG spheroids; read-out: ATP endpoint MEC
  minimal effective concentration: 1.76 µM
HepaRG spheroids; read-out: HCS endpoint AC50
  AC50: 6.32 µM
HepaRG spheroids; read-out: HCS endpoint MEC
  minimal effective concentration: 0.693 µM
